{"source": "paper PMC11356900", "about": "“Synthesis, Structural Properties and Biological Activities of Novel Hydrazones of 2-, 3-, 4-Iodobenzoic Acid” (Molecules, 2024)", "key": {"MTT cytotoxicity assay": {"test": "MTT cytotoxicity assay", "type": "cell-based, mouse", "conditions": "mouse, L929 fibroblast cells; L929, 48 h culture, dose of 25 μM; read-out: increased viability", "method": "(§1) Among all the newly synthesized compounds, four compounds designated as: 14, 20, 21 and 27 were selected for further testing of their cytotoxic properties at the doses of 10, 25, 50, 75 and 100 µM. The cytotoxic properties of the above compounds were tested on the cancer cell lines, i.e., A549 (ECACC 86012804) (non-small-cell lung cancer), T47D (ECACC 85102201) (breast cancer), HeLa (ATCC® CCL-2™) (cervical cancer) and normal line L929 (NCTC clone 929, ATCC® CCL-1™) (mouse fibroblasts) using the MTT test for 24- and 48 h cultures.\n(§2) A549 (ECACC 86012804) (non-small-cell lung cancer) and T47D (ECACC 85102201) (breast cancer) were obtained from ECACC and propagated in Dulbecco’s Minimal Essential Medium, supplemented with 2 mM of glutamine, antibiotics ([…] streptomycin, 1% of 100 U/L penicillin) and 10% Fetal Bovine Serum. HeLa (ATCC® CCL-2™) (cervical cancer) and L929 (NCTC clone 929, ATCC® CCL-1™) (mouse fibroblasts) cell lines were obtained from ATCC and propagated in the Eagle Minimal Essential Medium supplemented with antibiotics ([…] streptomycin, 1% of 100 U/L penicillin) and with 10% and 5% FBS, respectively. The cell line was routinely grown in 75 cm^2 tissue culture flasks and kept in an incubator (humidified atmosphere of 5% CO2 at 37 °C). All examined cell lines were tested against mycoplasma contamination with microbiological assays.\n(§3) The cell viability of tested compounds (14, 20, 21 and 27) was assessed by the MTT assay. In brief, the exponentially growing cells were plated in 100 μL/well in 96-well plates. After 24 h culturing, the cells were treated with different concentrations of compounds (range 10–100 μM). After 24 and 48 h of incubation, 10 μL of 5 mg/mL MTT was added to each well and the plates were incubated at 37 °C for additional 4 h. The medium was subsequently removed, the purple-colored precipitates of formazan were dissolved in 100 μL of DMSO. The color absorbance was recorded at 570 nm using a BioTek model EPOCH ELISA plate reader. All experiments were performed in triplicate. The absorbance values were in the range of linearity of the Lambert–Beer law."}, "L929 cell line": {"tested_on": "L929 cell line", "test": "MTT cytotoxicity assay", "type": "cell-based, mouse", "conditions": "for cytotoxicity: L929, 24 h culture", "method": "as §1, §2, §3"}, "[1]": {"tested_on": "Staphylococcus aureus ATCC 25923", "test": "Broth microdilution MIC/MBC", "conditions": "Staphylococcus aureus, ATCC25923"}}, "data": [{"smiles": "O=C(N/N=C/c1cc(I)cc(I)c1O)c1ccccc1I", "note": "[Compound 14, N-[(3,5-diiodo-2-hydroxyphenyl)methylidene]-2-iodobenzohydrazide]", "values": [{"measurement": "viability at 48 h, 25 µM", "setting": "MTT cytotoxicity assay", "value": "> 100", "unit": "%"}, {"measurement": "cell proliferation", "setting": "L929 cell line; L929, 24h, 10 µM, Repeat No 1", "value": 94, "unit": "%"}, {"measurement": "cell proliferation", "setting": "L929 cell line; L929, 24h, 10 µM, Repeat No 2", "value": 94, "unit": "%"}, {"measurement": "cell proliferation", "setting": "L929 cell line; L929, 24h, 25 µM, Repeat No 1", "value": 100, "unit": "%"}, {"measurement": "cell proliferation", "setting": "L929 cell line; L929, 24h, 25 µM, Repeat No 2", "value": 89, "unit": "%"}, {"measurement": "cell proliferation", "setting": "L929 cell line; L929, 24h, 50 µM, Repeat No 1", "value": 85, "unit": "%"}, {"measurement": "cell proliferation", "setting": "L929 cell line; L929, 24h, 50 µM, Repeat No 2", "value": 73, "unit": "%"}, {"measurement": "cell proliferation", "setting": "L929 cell line; L929, 24h, 75 µM, Repeat No 1", "value": 77, "unit": "%"}, {"measurement": "cell proliferation", "setting": "L929 cell line; L929, 24h, 75 µM, Repeat No 2", "value": 69, "unit": "%"}, {"measurement": "cell proliferation", "setting": "L929 cell line; L929, 24h, 100 µM, Repeat No 1", "value": 91, "unit": "%"}, {"measurement": "cell proliferation", "setting": "L929 cell line; L929, 24h, 100 µM, Repeat No 2", "value": 97, "unit": "%"}, {"measurement": "cytotoxicity", "setting": "L929 cell line; dose of 75 µM", "value": "around 40%"}, {"measurement": "cytotoxicity", "setting": "L929 cell line; tested doses 10–100 µM", "value": "approximately 20%"}, {"measurement": "cell proliferation", "setting": "L929 cell line; L929, 48h, 10 µM, Repeat No 1", "value": 75, "unit": "%"}, {"measurement": "cell proliferation", "setting": "L929 cell line; L929, 48h, 10 µM, Repeat No 2", "value": 99, "unit": "%"}, {"measurement": "cell proliferation", "setting": "L929 cell line; L929, 48h, 25 µM, Repeat No 1", "value": 106, "unit": "%"}, {"measurement": "cell proliferation", "setting": "L929 cell line; L929, 48h, 25 µM, Repeat No 2", "value": 99, "unit": "%"}, {"measurement": "cell proliferation", "setting": "L929 cell line; L929, 48h, 50 µM, Repeat No 1", "value": 83, "unit": "%"}, {"measurement": "cell proliferation", "setting": "L929 cell line; L929, 48h, 50 µM, Repeat No 2", "value": 98, "unit": "%"}, {"measurement": "cell proliferation", "setting": "L929 cell line; L929, 48h, 75 µM, Repeat No 1", "value": 83, "unit": "%"}, {"measurement": "cell proliferation", "setting": "L929 cell line; L929, 48h, 75 µM, Repeat No 2", "value": 89, "unit": "%"}, {"measurement": "cell proliferation", "setting": "L929 cell line; L929, 48h, 100 µM, Repeat No 1", "value": 94, "unit": "%"}, {"measurement": "cell proliferation", "setting": "L929 cell line; L929, 48h, 100 µM, Repeat No 2", "value": 101, "unit": "%"}, {"measurement": "MBC", "setting": "[1]", "value": 250, "unit": "µg/mL"}, {"measurement": "MIC", "setting": "[1]", "value": 125, "unit": "µg/mL"}]}]}
